Measurements: patent publication US20100076015A1, “Aminopyridine Derivatives” (VANTIA LIMITED, priority 2008, published 2010)

target: T1, Human KLK1 (Homo sapiens, UniProt P06870); experiment: Determination of the IC50 for KLK1 (fluorogenic substrate H-DVal-Leu-Arg-AFC); type: biochemical; settings: 37° C.
T1 construct: purchased Callbiochem (Calbiochem)
Outline: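 hKLK1 + H-DVal-Leu-Arg-AFC, 37° C, varied cpd conc. Initial rate by A410 change → residual activity → IC50.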

T1 sequence (P06870 25-262): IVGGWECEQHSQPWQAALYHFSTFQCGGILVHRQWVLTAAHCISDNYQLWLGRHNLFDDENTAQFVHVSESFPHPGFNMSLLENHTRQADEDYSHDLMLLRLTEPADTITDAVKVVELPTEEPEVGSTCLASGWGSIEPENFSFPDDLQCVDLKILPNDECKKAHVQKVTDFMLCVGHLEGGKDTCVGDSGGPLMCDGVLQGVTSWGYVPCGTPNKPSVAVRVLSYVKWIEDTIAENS

Row | IC50 | SMILES
1 | 8.4 nM | CC(C)N(CC(=O)N[C@@H](CC1CCCC2CCCCC21)C(=O)NCc1ccc(N)nc1)C(C)C (stereo partly drawn) [Example 394, (S)—N-(6-Amino-pyridin-3-ylmethyl)-3-(decahydro-naphthalen-1-yl)-2-(2-diisopropylamino-acetylamino)-propionamide]
2 | 32.2 nM | CCC(C)[C@H](C(=O)N[C@@H](Cc1cccc(F)c1)C(=O)NCc1ccc(N)nc1)N(C)C (stereo partly drawn) [Example 377, (R)-2-Dimethylamino-3-methyl-pentanoic acid [(S)-1-[(6-amino-pyridin-3-ylmethyl)-carbamoyl]-2-(3-fluoro-phenyl)-ethyl]-amide]
3 | 32.1 nM | CCC(C)[C@@H](N)C(=O)N[C@@H](Cc1ccccc1C)C(=O)NCc1ccc(N)nc1 (stereo partly drawn) [Example 28, (R)-2-Amino-3-methyl-pentanoic acid {(S)-1-[(6-amino-pyridin-3-ylmethyl)-carbamoyl]-2-o-tolyl-ethyl}-amide]
4 | 3 nM | C[C@@H](C(=O)N[C@@H](Cc1ccc(F)c(F)c1)C(=O)NCc1ccc(N)nc1)N1CCCC1 [Example 357, (S)—N-[(S)-1-[(6-Amino-pyridin-3-ylmethyl)-carbamoyl]-2-(3,4-difluoro-phenyl)-ethyl]-2-pyrrolidin-1-yl-propionamide]
5 | 2.5 nM | CC1CCCC(C)N1CC(=O)N[C@@H](Cc1ccc(F)cc1)C(=O)NCc1ccc(N)nc1 (stereo partly drawn) [Example 378, (S)—N-(6-Amino-pyridin-3-ylmethyl)-2-[2-(2,6-dimethyl-piperidin-1-yl)-acetylamino]-3-(4-fluoro-phenyl)-propionamide]
6 | 3.6 nM | CCC(C)[C@H](NC)C(=O)N[C@@H](C(=O)NCc1ccc(N)nc1)C(C1CCCCC1)C1CCCCC1 (stereo partly drawn) [Example 219, (S)-3-Methyl-2-methylamino-pentanoic acid {(R)-1-[(6-amino-pyridin-3-ylmethyl)-carbamoyl]-2,2-dicyclohexyl-ethyl}-amide]
7 | 216 nM | CC(C)CN(C)CC(=O)N[C@@H](Cc1ccc(Cl)c(Cl)c1)C(=O)NCc1ccc(N)nc1 [Example 154, (S)—N-(6-Amino-pyridin-3-ylmethyl)-3-(3,4-dichloro-phenyl)-2-[2-(isobutyl-methyl-amino)-acetylamino]-propionamide]
8 | 85.4 nM | COc1ccc2[nH]c(C(=O)N[C@@H](Cc3ccc(Cl)c(Cl)c3)C(=O)NCc3ccc(N)nc3C)cc2c1 [Example 321, 5-Methoxy-1H-indole-2-carboxylic acid [(S)-1-[(6-amino-2-methyl-pyridin-3-ylmethyl)-carbamoyl]-2-(3,4-dichloro-phenyl)-ethyl]-amide]
9 | 21.5 nM | COc1ccc2[nH]c(C(=O)N[C@@H](Cc3ccc(F)cc3)C(=O)NCc3ccc(N)nc3)cc2c1 [Example 332, 5-Methoxy-1H-indole-2-carboxylic acid [(S)-1-[(6-amino-pyridin-3-ylmethyl)-carbamoyl]-2-(4-fluoro-phenyl)-ethyl]-amide]
10 | 5.8 nM | CCC(C)[C@@H](N)C(=O)N[C@@H](Cc1cc(F)cc(F)c1)C(=O)NCc1ccc(N)nc1 (stereo partly drawn) [Example 39, (R)-2-Amino-3-methyl-pentanoic acid [(S)-1-[(6-amino-pyridin-3-ylmethyl)-carbamoyl]-2-(3,5-difluoro-phenyl)-ethyl]-amide]
11 | 17 nM | CN(C)C(Cc1ccccc1)C(=O)NC(Cc1cccc(Cl)c1)C(=O)NCc1ccc(N)nc1 [Example 407, (R)—N-[(S)-1-[6-Amino-pyridin-3-ylmethyl)-carbamoyl]-2-(3-chloro-phenyl)-ethyl]-2-dimethylamino-3-phenyl-propionamide]
12 | 8 nM | CN[C@H](C)C(=O)N[C@@H](Cc1ccc(F)c(F)c1)C(=O)NCc1ccc(N)nc1 [Example 84, (R)—N-[(S)-1-[(6-Amino-pyridin-3-ylmethyl)-carbamoyl]-2-(3,4-difluoro-phenyl)-ethyl]-2-methylamino-propionamide]
13 | 6.2 nM | CCN(C)[C@@H](C)C(=O)N[C@@H](Cc1cccc(C(F)(F)F)c1)C(=O)NCc1ccc(N)nc1 [Example 416, (S)—N-[(S)-1-[(6-Amino-pyridin-3-ylmethyl)-carbamoyl]-2-(3-trifluoromethyl-phenyl)-ethyl]-2-(ethyl-methyl-amino)-propionamide]
14 | 42.9 nM | CCN(CC)[C@@H](CO)C(=O)N[C@@H](CC1CCCCC1)C(=O)NCc1ccc(N)nc1 [Example 389, (S)—N-{(S)-1-[(6-Amino-pyridin-3-ylmethyl)-carbamoyl]-2-cyclohexyl-ethyl}-2-diethylamino-3-hydroxy-propionamide]
15 | 12.5 nM | Cc1ccc(C[C@H](NC(=O)c2[nH]c(C)cc2C)C(=O)NCc2ccc(N)nc2)cc1 [Example 253, 3,5-Dimethyl-1H-pyrrole-2-carboxylic acid {(S)-1-[(6-amino-pyridin-3-ylmethyl)-carbamoyl]-2-p-tolyl-ethyl}-amide]
16 | 50.6 nM | Cc1nc(N)ccc1CNC(=O)[C@H](Cc1ccc(F)c(F)c1)NC(=O)[C@@H](C)N1CCCCC1 [Example 431, (R)—N-[(S)-1-[(6-Amino-2-methyl-pyridin-3-ylmethyl)-carbamoyl]-2-(3,4-difluoro-phenyl)-ethyl]-2-piperidin-1-yl-propionamide]
17 | 55.6 nM | CCN(C)[C@@H](CO)C(=O)N[C@@H](Cc1ccc(F)c(F)c1)C(=O)NCc1ccc(N)nc1 [Example 361, (S)—N-[(S)-1-[(6-Amino-pyridin-3-ylmethyl)-carbamoyl]-2-(3,4-difluoro-phenyl)-ethyl]-2-(ethyl-methyl-amino)-3-hydroxy-propionamide]
18 | 0.81 nM | Cc1nc(N)ccc1CNC(=O)[C@H](CC1CCCC2CCCCC21)NC(=O)[C@H](N)C(C)C (stereo partly drawn) [Example 186, (R)-2-Amino-N-[(S)-1-[(6-amino-2-methyl-pyridin-3-ylmethyl)-carbamoyl]-2-(decahydro-naphthalen-1-yl)-ethyl]-3-methyl-butyramide]
19 | 2.7 nM | CC1CCCC(C)N1CC(=O)N[C@@H](Cc1ccc(Cl)cc1)C(=O)NCc1ccc(N)nc1 (stereo partly drawn) [Example 426, (S)—N-(6-Amino-pyridin-3-ylmethyl)-3-(4-chloro-phenyl)-2-[2-(2,6-dimethyl-piperidin-1-yl)-acetylamino]-propionamide]
20 | 26.9 nM | CC(C)N(CC(=O)N[C@@H](CC1CCCCC1)C(=O)NCc1ccc(N)nc1)C(C)C [Example 393, (S)—N-(6-Amino-pyridin-3-ylmethyl)-3-cyclohexyl-2-(2-diisopropylamino-acetylamino)-propionamide]
21 | 128 nM | Nc1ccc(CNC(=O)[C@H](Cc2ccc(F)cc2)NC(=O)CN2CCCCC2)cn1 [Example 379, (S)—N-(6-Amino-pyridin-3-ylmethyl)-3-(4-fluoro-phenyl)-2-(2-piperidin-1-yl-acetylamino)-propionamide]
22 | 38.1 nM | CN(C/C=C/c1ccccc1)CC(=O)N[C@@H](Cc1ccc(F)c(F)c1)C(=O)NCc1ccc(N)nc1 [Example 162, (S)—N-(6-Amino-pyridin-3-ylmethyl)-3-(3,4-difluoro-phenyl)-2-{2-[methyl-((E)-3-phenyl-allyl)-amino]-acetylamino}-propionamide]
23 | 1.2 nM | Nc1ccc(CNC(=O)[C@H](Cc2csc3ccccc23)NC(=O)[C@H]2CCCCN2)cn1 [Example 78, (R)-Piperidine-2-carboxylic acid {(S)-1-[(6-amino-pyridin-3-ylmethyl)-carbamoyl]-2-benzo[b]thiophen-3-yl-ethyl}-amide]
